# Patent US9988445B2, “Method of treatment of pain by administration of a CCL17 specific antibody” (The University of Melbourne, priority 2013, dated 2018)
# Entries after “also recorded” stand apart in the source; their conditions may differ.
# B1: CCL17: chemokine (C-C motif)17, also known as thymus- and activation-regulated chemokine (protein, UniProt Q92583 24-94, looked up)
# C-C motif chemokine 17: ARGTNVGRECCLEYFKGAIPLRKLKTWYQTSEDCSRDAIVFVTVQGRAICSDPNNKRVKNAVKYLQSLERS
# Columns and labels:
# [1] = test system: mice; test: GM-CSF given intraplantarly, pain development (Incapacitance Tester); format: in vivo; settings: GM-CSF 20 ng i.pl., four hours, vs. saline
# Protocol: Mice were treated with a monoclonal antibody (mAb) to CCL17 (300 μg) or with an isotype control mAb (300 μg) at the same time as being given GM-CSF and pain was measured at four hours later.
# (§1) An Incapacitance Tester (Dual Weight Averager) is used to automatically and reproducibly assess the analgesic potency by measuring the weight distribution on the two hind paws.
# (§2) Weight placed on each hind limb was measured over a 3 second period. 3 separate measurements taken per mouse for each time point then averaged. Results are expressed as injected limb/control limb×100. Thus a value of 100 means that equal weight is being placed on the right and the left limb. A value below 100 means less weight is being placed on the injected limb (left) compared with the control limb (right).
# [2] = test system: mice; test: CCL17 given intraplantarly, pain development (Incapacitance Tester); format: in vivo; settings: CCL17 50 ng i.pl., 6 hours, p<0.05 vs. saline
# Protocol: as §1, §2
# Pain is identified as a decrease in the ratio of weight distribution between the CCL17-injected and saline-injected paw where a percentage of less than 95 indicates pain development (see Example 1 above). Thus, CCL17 can induce pain.
Molecule,pain development after i.pl. injection in the footpad [1],pain development (ratio of weight distribution between CCL17-injected and saline-injected paw; less than 95 indicates pain) [2]
GM-CSF: proinflammatory cytokine GM-CSF,develop pain,–
B1,–,develop pain; also recorded: induces pain
